Data published in patent US9365541B2, “Compounds for use in the treatment of parasitic diseases” (IRBM—SCIENCE PARK S.P.A., priority 2012, dated 2016).
pEC50, pIC50: −log10 of the molar value.

Assays:
[1] = molecular target: T1, human HDAC1 (Homo sapiens, UniProt Q13547); assay: Homo sapiens HDAC1 inhibition assay (Fluor-de-Lys, enzymatic); assay type: biochemical; settings: human HDAC enzymatic assay; read-out: hHDAC IC50
T1 construct: made in house; host or cells: HeLa (ATCC CCL-2), mammalian cells
T1 sequence (Q13547 whole entry): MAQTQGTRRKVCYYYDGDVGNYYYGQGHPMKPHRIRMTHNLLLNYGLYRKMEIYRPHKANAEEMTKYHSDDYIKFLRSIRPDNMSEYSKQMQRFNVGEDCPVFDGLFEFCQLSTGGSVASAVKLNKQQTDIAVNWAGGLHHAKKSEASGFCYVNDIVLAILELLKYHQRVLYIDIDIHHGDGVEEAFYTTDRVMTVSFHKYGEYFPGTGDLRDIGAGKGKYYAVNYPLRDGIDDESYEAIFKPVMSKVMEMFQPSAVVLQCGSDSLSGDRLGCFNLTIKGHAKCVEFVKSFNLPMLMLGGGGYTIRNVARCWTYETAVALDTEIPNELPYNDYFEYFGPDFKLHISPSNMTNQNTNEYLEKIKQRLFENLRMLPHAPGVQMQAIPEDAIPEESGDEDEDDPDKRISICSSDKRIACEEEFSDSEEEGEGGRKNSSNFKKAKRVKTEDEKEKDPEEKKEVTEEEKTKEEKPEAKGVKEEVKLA
Description: Biology Homo sapiens HDAC1 Inhibition Assay Overview:
The aim of the assay is to evaluate the inhibition of the deacetylase activity of human HDAC1. To such goal an acetylated substrate is added to the enzyme mix; the resulting enzymatic product is converted to a fluorescent molecule by the addition the enzyme trypsine (developer solution). Fluorescence intensity is inversely proportional to the rate of inhibition of the enzyme (as indicated in the material section below).
Reagents of the HDAC Fluorescent Activity Assay are purchased from Enzo Life Sciences (http://www.enzolifesciences.com/BML-AK500/fluor-de-lys-hdac-fluorometric-activity-assay-kit/) and feature the Fluor-de-Lys™ Substrate/Developer System.
c) Trichostatin A (TSA) Stock
TSA (Sigma-Aldrich, T8552) is provided as a 10 mM stock solution in 100% dimethylsulfoxide (DMSO).
Diluted Substrate Solution
The final concentration in the assay is 20 μM.
Diluted Developer Solution
2 μM [final] TSA to this solution increases its ability to stop the reaction.
The HDAC1 enzyme is diluted in assay buffer prior to each use from a fresh aliquot of enzyme.
The final concentration in the assay is 1-2 nM.
Test compounds should be prepared in 100% DMSO and transferred to the assay by a nano volume dispenser to reach the appropriate concentration and the appropriate DMSO concentration (0.25%) in the reaction.

[2] = tested on: Plasmodium falciparum 3D7; assay: P. falciparum growth inhibition assay (Pf-LDH); assay type: cell-based; settings: Plasmodium falciparum, Erythrocyte; P. falciparum 3D7 infected erythrocytes, 72 h incubation, PfLDH readout
Description: Basic culture of Plasmodium falciparum 3D7 parasites (Malaria Research and Reference Reagent Resource Center (MR4), MR4 Number: MRA-102).
Starting with a culture with a parasitemia of about 10% (and 5% hematocrit), 0.5 ml of the culture is placed in a fresh 100 mm petri dish with 0.95 ml of fresh erythrocytes (50% hematocrit) and 8.55 ml of culture medium, giving a new starting parasitemia of 0.5%. The petri dish is then incubated at 37° C. in a humidified gas-tight plastic box flushed with a gas mixture consisting of 93% N2, 4% CO2, and 3% O2. The culture medium is changed daily. The supernatant is removed by gently tipping the dish without disturbing the settled cells and aspirating the medium with a Pasteur pipette connected to a vacuum pump. A small amount of the concentrated cells is taken to prepare a blood smear for determination of the parasitemia. Normally, the cultures are split twice a week. If the parasites are growing very slowly then fresh erythrocytes are added to the culture no later than after 7 days. The cultures are then split 1:2 if the parasitemia is lower than 0.5%. To avoid the necessity of daily medium change on weekends, a culture with a 2.5% hematocrit and 0.1-0.2% parasitemia is set up and can be left for 3 days without medium change.
Standard medium consists of RPMI 1640, supplemented with 25 mM HEPES, 24 mM NaHCO3, 0.36 mM hypoxanthine, 100 μg/ml Neomycin, 5 g/1 Albumax® II, and washed human red blood cells (rbcs) A+.
P. falciparum Growth Inhibition Assay (Pf-LDH)
Compounds of the invention were assessed for in vitro antimalarial activity against a cloroquine sensitive (3D7) strain of the malaria parasite Plasmodium falciparum, using a lactate dehydrogenase (PfLDH) assay.
EC50 Determination by Pf-LDH Assay
384 plates (where compounds to be tested are dispensed) with 25 μl of parasite inoculum (parasitemia: 0.25%, hematocrit: 2%) are incubated at 37° C. in an atmosphere of 4% CO2, 3% O2, 93% N2. After 72 h of incubation, plates are frozen at −70° C. overnight and thawed at room temperature for at least 4 h. To evaluate PfLDH activity, 70 μl of freshly made reaction mix (143 mM sodium L-lactate, 143 μM 3-acetyl pyridine adenine dinucleotide (APAD), 178.75 μM Nitro Blue tetrazolium chloride (NBT), 286 μg/ml diaphorase (2.83 U/ml), 0.7% Tween 20, 100 mM Tris-HCl pH 8.0) is dispensed using a Multidrop Combi dispenser. Plates are shaken to ensure mixing and absorbance at 650 nm is monitored in a plate reader after 10 min of incubation at room temperature.
Negative controls (0% Effect) are produced by addition of DMSO to the proper wells.
Positive controls (100% Effect) are produced by addition of 150 nM Artemisinin (Sigma-Aldrich, 361593)
After result normalization using positive and negative controls, compound potency is determined by fitting the following equation: % inh=Ymin+(Ymax−Ymin)/(1+(X/EC50)^slope)) Where: • Ymin=minimum percentage effect • Ymax=maximum percentage effect • EC50=the concentration of the compound at which 50% effect is reached • Slope=the slope of the curve calculated at the EC50 Histone Hyperacetylation and Immunodetection of Altered Histone Modifications Assay

| pIC50 [1] | pEC50 [2] | Structure (SMILES) |
| --- | --- | --- |
| > 6.00 | > 6.00 | CNC(=O)CCCCC[C@H](NC(=O)Cc1cnc2ncnn2c1)c1ncc(-c2ccc3ccccc3c2)[nH]1 [Entry 22, (S)-7-(2-([1,2,4]triazolo[1,5-a]pyrimidin-6-yl)acetamido)-N-methyl-7-(5-(naphthalen-2-yl)-1H-imidazol-2-yl)heptanamide] |
| 5.30 to 6.00 | 5.30 to 6.00 | CNC(=O)CCCCC[C@H](NC(=O)CN1CCOCC1)c1ncc(-c2ccc3ccccc3c2)[nH]1 [Entry 23, (S)-N-methyl-7-(2-morpholinoacetamido)-7-(5-(naphthalen-2-yl)-1H-imidazol-2-yl)heptanamide] |
| 5.30 to 6.00 | > 6.00 | CNC(=O)CCCCC[C@H](NC(=O)c1cncs1)c1ncc(-c2ccc3[nH]ccc3c2)[nH]1 [Entry 24, (S)-N-(1-(5-(1H-indol-5-yl)-1H-imidazol-2-yl)-7-(methylamino)-7-oxoheptyl)thiazole-5-carboxamide] |
| 5.30 to 6.00 | > 6.00 | CCOc1cccc2cc(-c3cnc([C@H](CCCCCC(=O)NC)NC(=O)c4cncs4)[nH]3)ccc12 [Entry 25, (S)-N-(1-(5-(5-ethoxynaphthalen-2-yl)-1H-imidazol-2-yl)-7-(methylamino)-7-oxoheptyl)thiazole-5-carboxamide] |
| > 6.00 | 5.30 to 6.00 | CNC(=O)CCCCC[C@H](NC(=O)C1CN(C)C1)c1ncc(-c2ccc3ccccc3c2)[nH]1 [Entry 26] |
| 5.30 to 6.00 | 5.30 to 6.00 | CNC(=O)CCCCC[C@H](NC(=O)CCn1ccnc1)c1ncc(-c2cc3ccccc3nc2OC)[nH]1 [Entry 27, (S)-7-(3-(1H-imidazol-1-yl)propanamido)-7-(5-(2-methoxyquinolin-3-yl)-1H-imidazol-2-yl)-N-methylheptanamide] |
| > 6.00 | 5.30 to 6.00 | CCc1nc2ccccc2n1CCC(=O)N[C@@H](CCCCCC(=O)NC)c1ncc(-c2ccc(C(F)(F)F)cc2)[nH]1 [Entry 28] |
| 5.30 to 6.00 | 5.30 to 6.00 | CNC(=O)CCCCC[C@H](NC(=O)c1cncs1)c1ncc(-c2ccc(-c3ccncc3)cc2)[nH]1 [Entry 29, (S)-N-(7-(methylamino)-7-oxo-1-(5-(4-(pyridin-4-yl)phenyl)-1H-imidazol-2-yl)heptyl)thiazole-5-carboxamide] |
| < 5.30 | 5.30 to 6.00 | CNC(=O)CCCCC[C@H](NC(=O)c1csc(-c2cccnc2)n1)c1ncc(-c2cc3ccccc3nc2OC)[nH]1 [Entry 30] |
| > 6.00 | 5.30 to 6.00 | CNC(=O)CCCCC[C@H](NC(=O)c1nnc(C)s1)c1ncc(-c2cc3ccccc3nc2OC)[nH]1 [Entry 31, (S)-N-(1-(5-(2-methoxyquinolin-3-yl)-1H-imidazol-2-yl)-7-(methylamino)-7-oxoheptyl)-5-methyl-1,3,4-thiadiazole-2-carboxamide] |
| > 6.00 | < 5.30 | CNC(=O)CCCCC[C@H](NC(=O)CN1CCC(N(C)C)C1)c1ncc(-c2cc3ccccc3nc2OC)[nH]1 (stereo partly drawn) [Entry 32, (7S)-7-(2-(3-(dimethyl-amino)pyrrolidin-1-yl)acetamido)-7-(5-(2-methoxyquinolin-3-yl)-1H-imidazol-2-yl)-N-methylheptanamide] |
| > 6.00 | 5.30 to 6.00 | CNC(=O)CCCCC[C@H](NC(=O)C1CCCN(C)C1)c1ncc(-c2cc3ccccc3nc2OC)[nH]1 (stereo partly drawn) [Entry 33, N-((S)-1-(5-(2-methoxyquinolin-3-yl)-1H-imidazol-2-yl)-7-(methylamino)-7-oxoheptyl)-1-methylpiperidine-3-carboxamide] |
| 5.30 to 6.00 | 5.30 to 6.00 | CNC(=O)CCCCC[C@H](NC(=O)c1cnsc1)c1ncc(-c2ccc3[nH]ncc3c2)[nH]1 [Entry 34, (S)-N-(1-(5-(1H-indazol-5-yl)-1H-imidazol-2-yl)-7-(methylamino)-7-oxoheptyl)isothiazole-4-carboxamide] |
| 5.30 to 6.00 | > 6.00 | CNC(=O)CCCCC[C@H](NC(=O)c1cncs1)c1ncc(-c2cccc(CN)c2)[nH]1 [Entry 35, (S)-N-(1-(5-(3-(amino-methyl)phenyl)-1H-imidazol-2-yl)-7-(methylamino)-7-oxoheptyl)thiazole-5-carboxamide] |
| 5.30 to 6.00 | > 6.00 | CNC(=O)CCCCC[C@H](NC(=O)c1cncs1)c1ncc(-c2cnc3ccccc3c2)[nH]1 [Entry 36, (S)-N-(7-(methylamino)-7-oxo-1-(5-(quinolin-3-yl)-1H-imidazol-2-yl)heptyl)thiazole-5-carboxamide] |
| > 6.00 | 5.30 to 6.00 | CNC(=O)CCCCC[C@H](NC(=O)OCc1ccccc1)c1ncc(-c2ccc(-c3cc[nH]n3)cc2)[nH]1 [Entry 37, (S)-benzyl(1-(5-(4-(1H-pyrazol-3-yl)phenyl)-1H-imidazol-2-yl)-7-(methylamino)-7-oxoheptyl)carbamate] |
| 5.30 to 6.00 | 5.30 to 6.00 | CNC(=O)CCCCC[C@H](NC(=O)CCc1c(C)nc2ncnn2c1C)c1ncc(-c2ccc(-n3cccn3)cc2)[nH]1 [Entry 38, (S)-7-(5-(4-(1H-pyrazol-1-yl)phenyl)-1H-imidazol-2-yl)-7-(3-(5,7-dimethyl-[1,2,4]triazolo[1,5-a]pyrimidin-6-yl)propanamido)-N-methylheptanamide] |
| 5.30 to 6.00 | 5.30 to 6.00 | CNC(=O)CCCCC[C@H](NC(=O)CC1=CSC2=NCCCN12)c1ncc(-c2ccc(-n3cccn3)cc2)[nH]1 [Entry 39, (S)-7-(5-(4-(1H-pyrazol-1-yl)phenyl)-1H-imidazol-2-yl)-7-(2-(6,7-dihydro-5H-thiazolo[3,2-a]pyrimidin-3-yl)acetamido)-N-methylheptanamide] |
| 5.30 to 6.00 | 5.30 to 6.00 | CNC(=O)CCCCC[C@H](NC(=O)C1(C)CCOCC1)c1ncc(-c2ccc3ccccc3c2)[nH]1 [Entry 40] |
| 5.30 to 6.00 | > 6.00 | CNC(=O)CCCCC[C@H](NC(=O)c1ccc(N2CC(=O)NC2=O)cc1)c1ncc(-c2ccc3ccccc3c2)[nH]1 [Entry 41, (S)-4-(2,4-dioxoimidazolidin-1-yl)-N-(7-(methylamino)-1-(5-(naphthalen-2-yl)-1H-imidazol-2-yl)-7-oxo-heptyl)benzamide] |
| 5.30 to 6.00 | 5.30 to 6.00 | CNC(=O)CCCCC[C@H](NC(=O)c1cccc(-n2nc(C)cc2C)c1)c1ncc(-c2ccc3ccccc3c2)[nH]1 [Entry 42, (S)-3-(3,5-dimethyl-1H-pyrazol-1-yl)-N-(7-(methylamino)-1-(5-(naphthalen-2-yl)-1H-imidazol-2-yl)-7-oxo-heptyl)benzamide] |
| 5.30 to 6.00 | < 5.30 | CNC(=O)CCCCC[C@H](NC(=O)c1nc2ncccn2n1)c1ncc(-c2ccc3ccccc3c2)[nH]1 [Entry 43, (S)-N-(7-(methylamino)-1-(5-(naphthalen-2-yl)-1H-imidazol-2-yl)-7-oxoheptyl)-[1,2,4]triazolo[1,5-a]pyrimidine-2-carboxamide] |
| > 6.00 | 5.30 to 6.00 | CNC(=O)CCCCC[C@H](NC(=O)Cn1cnc2ccccc21)c1ncc(-c2ccc3ccccc3c2)[nH]1 [Entry 44, (S)-7-(2-(1H-benzo[d]imidazol-1-yl)acetamido)-N-methyl-7-(5-(naphthalen-2-yl)-1H-imidazol-2-yl)heptanamide] |
